Data set [1] concerns MRSA ATCC 43300. Put plainly: Inhibition zone, MIC and MBC. The class given is cell-based, Staphylococcus aureus.
For data set [2], the system named is K. pneumonia ATCC 13883. Nature of the data set: Inhibition zone, MIC and MBC. It counts as cell-based, Klebsiella pneumoniae.
The subject of data set [3] is E. coli ATCC 25922. Nature of the data set: Inhibition zone, MIC and MBC. The class given is cell-based.
The subject of data set [4] is C. albicans ATCC 10231. Nature of the data set: Inhibition zone, MIC and MBC. It counts as cell-based. To be noted: Candida albicans, ATCC10231.
Data set [5] deals with P. aeruginosa ATCC 10145. Nature of the data set: Inhibition zone, MIC and MBC. The class given is cell-based, Pseudomonas aeruginosa.
For data set [6], the system named is MRSA ATCC 43300. Put plainly: Biofilm formation inhibition, crystal violet assay. To be noted: at the corresponding MIC. The class given is cell-based, Staphylococcus aureus.
In data set [7] the test system is K. pneumonia ATCC 13883. Nature of the data set: Biofilm formation inhibition, crystal violet assay. It counts as cell-based, Klebsiella pneumoniae. To be noted: at the corresponding MIC.
In data set [8] the test system is E. coli ATCC 25922. Put plainly: Biofilm formation inhibition, crystal violet assay. The class given is cell-based. To be noted: at the corresponding MIC.
The subject of data set [9] is C. albicans ATCC 10231. Put plainly: Biofilm formation inhibition, crystal violet assay. It counts as cell-based, Candida albicans. To be noted: at the corresponding MIC.
The test system of data set [10] is P. aeruginosa ATCC 10145. Put plainly: Biofilm formation inhibition, crystal violet assay. It counts as cell-based, Pseudomonas aeruginosa. To be noted: at the corresponding MIC.
The subject of data set [11] is MRSA NRS384 (MRSA USA300). Nature of the data set: MIC, broth microdilution. The class given is cell-based, methicillin-resistant Staphylococcus aureus. To be noted: Staphylococcus aureus. For orientation: Dilution methods test growth across graded concentrations, often in twofold steps.
Data set [12] deals with Clostridium difficile ATCC BAA 1870. Nature of the data set: MIC, broth microdilution. The class given is cell-based. To be noted: Clostridioides difficile, BAA1870, Clostridium difficile ATCC BAA 1870.
Data set [13] deals with E. coli JW55031 (TolC mutant). Nature of the data set: MIC, broth microdilution. It counts as cell-based. To be noted: Escherichia coli.
Data set [14] has as its system Enterococcus faecalis ATCC 51299. Put plainly: MIC, broth microdilution. To be noted: ATCC51299. The class given is cell-based.
In data set [15] the test system is Neisseria gonorrhoeae 181. Nature of the data set: MIC, broth microdilution. The class given is cell-based. To be noted: Neisseria gonorrhoeae, 181, Neisseria gonorrhoeae 181.
Data set [16] deals with C. albicans SS5314 (wild type). Nature of the data set: MIC, broth microdilution. It counts as cell-based. To be noted: Candida albicans.
Data set [17] concerns Escherichia coli BW25113 (wild type). Nature of the data set: MIC, broth microdilution. It counts as cell-based.
For data set [18], the system named is methicillin-resistant Staphylococcus aureus. Put plainly: Time-kill assay. It counts as cell-based. To be noted: 4 × MIC, 24 hours incubation at 37 °C.
A further data set concerns human erythrocytes. Nature of the data set: Hemolytic activity. It counts as cell-based. To be noted: up to 64 μg mL^−1, 37 °C for 1 h.
Setting [19] is: Staphylococcus aureus, ATCC43300|MRSA.
The mark [20] stands for this setting: Klebsiella pneumoniae, ATCC13883.
Where [21] appears, read: Pseudomonas aeruginosa, ATCC10145.

In brackets after ≈: the same amount, converted by molar mass. Bounds are passed on as bounds.

Usually MIC stands for the lowest concentration that inhibits growth of the organism.

On to `CO/N=C(\C(=O)N[C@@H]1C(=O)N2C(C(=O)O)=C(CSc3nc(=O)c(=O)[nH]n3C)CS[C@H]12)c1csc(N)n1` [Ceftriaxone], for which the IZD with MRSA ATCC 43300 [1] (MRSA ATCC 43300, mean ± SD) is on record as 30.34 ± 1.24 millimeters; with K. pneumonia ATCC 13883 [2] (K. pneumonia ATCC 13883, mean ± SD), 34.34 ± 0.47 millimeters; in the data set on E. coli ATCC 25922 [3] (E. coli ATCC 25922, mean ± SD), 36 ± 1.50 millimeters; in the data set on P. aeruginosa ATCC 10145 [5] (P. aeruginosa ATCC 10145, mean ± SD), 35 ±1.85 millimeters. Also, the MBC against MRSA ATCC 43300 [1] (setting [19]) was 8 µg/mL (≈ 14.4 µM); against K. pneumonia ATCC 13883 [2] (setting [20]) it was 8 µg/mL (≈ 14.4 µM); against E. coli ATCC 25922 [3] (Escherichia coli, ATCC25922) it was 32 µg/mL (≈ 57.7 µM); in the data set on C. albicans ATCC 10231 [4], 31.2 µg/mL (≈ 56.3 µM); with P. aeruginosa ATCC 10145 [5] (setting [21]) it was 16 µg/mL (≈ 28.9 µM). For the same compound, the MIC came out at 8 µg/mL (≈ 14.4 µM) against MRSA ATCC 43300 [1] (setting [19]); 4 µg/mL (≈ 7.21 µM) against K. pneumonia ATCC 13883 [2] (setting [20]); 16 µg/mL (≈ 28.9 µM) with E. coli ATCC 25922 [3] (Escherichia coli, ATCC25922); 7.8 µg/mL (≈ 14.1 µM) with C. albicans ATCC 10231 [4]; 8 µg/mL (≈ 14.4 µM) with P. aeruginosa ATCC 10145 [5] (setting [21]). In addition, the “Inhibition of biofilm formation (%)” value is 73.262 ± 0.21% with MRSA ATCC 43300 [6]; 61.23 ± 0.22% in the data set with K. pneumonia ATCC 13883 [7]; 59.14 ± 0.16% in the data set on E. coli ATCC 25922 [8]; 82.50 ± 0.14% with C. albicans ATCC 10231 [9]; 74.39 ± 0.68% with P. aeruginosa ATCC 10145 [10].

`CCCC#Cc1ccc(-n2nnc(C(C)=NNC(=N)N)c2C)cc1` [Compound 19, 2-(1-(5-Methyl-1-(4-(pent-1-yn-1-yl)phenyl)-1H-1,2,3-triazol-4-yl)ethylidene)hydrazine-1-carboximidamide]: the MIC in data set [11] turned out to be 32 µg/mL (≈ 98.9 µM); in [12], 32 µg/mL (≈ 98.9 µM); in data set [13], 32 µg/mL (≈ 98.9 µM); in data set [14], 8 µg/mL (≈ 24.7 µM); in data set [15], 64 µg/mL (≈ 198 µM); in data set [16], 16 µg/mL (≈ 49.5 µM). This compound gave an MIC in [17] of more than 64 µg/mL.

Take `CC(=NNC(=N)N)c1nnn(-c2ccc(C#CCC(C)C)cc2)c1C` [Compound 20, 2-(1-(5-Methyl-1-(4-(4-methylpent-1-yn-1-yl)phenyl)-1H-1,2,3-triazol-4-yl)ethylidene)hydrazine-1-carboximidamide]: the MIC is not above 4 µg/mL in [11]; 8 µg/mL (≈ 23.7 µM) in data set [12]; 8 µg/mL (≈ 23.7 µM) in data set [13]; 8 µg/mL (≈ 23.7 µM) in [14]; 32 µg/mL (≈ 94.8 µM) in [15]; 8 µg/mL (≈ 23.7 µM) in data set [16]. The same compound came in with an MIC in [17] of more than 64 µg/mL.

As to `CCCCC#Cc1ccc(-n2nnc(C(C)=NNC(=N)N)c2C)cc1` [Compound 21, 2-(1-(1-(4-(Hex-1-yn-1-yl)phenyl)-5-methyl-1H-1,2,3-triazol-4-yl)ethylidene)hydrazine-1-carboximidamide], the MIC in [11] was 32 µg/mL (≈ 94.8 µM); in data set [12], 16 µg/mL (≈ 47.4 µM); in [13], 32 µg/mL (≈ 94.8 µM); in data set [14], 32 µg/mL (≈ 94.8 µM); in data set [15], more than 64 µg/mL; in data set [16] it was 16 µg/mL (≈ 47.4 µM). The same compound had an MIC in data set [17] of more than 64 µg/mL.

As for `CCCCCCC#Cc1ccc(-n2nnc(C(C)=NNC(=N)N)c2C)cc1` [Compound 22, 2-(1-(1-(4-(Oct-1-yn-1-yl)phenyl)-5-methyl-1H-1,2,3-triazol-4-yl)ethylidene)hydrazine-1-carboximidamide], the MIC in [11] is 64 µg/mL (≈ 175 µM); in [12], 64 µg/mL (≈ 175 µM); in data set [13], 64 µg/mL (≈ 175 µM); in [14] it was 64 µg/mL (≈ 175 µM); in data set [15], more than 64 µg/mL; in data set [16], 64 µg/mL (≈ 175 µM). In [17], this compound showed an MIC of more than 64 µg/mL.

With `CC(=NNC(=N)N)c1nnn(-c2ccc(C#CC3CC3)cc2)c1C` [Compound 24, 2-(1-(1-(4-(Cyclopropylethynyl)phenyl)-5-methyl-1H-1,2,3-triazol-4-yl)ethylidene)hydrazine-1-carboximidamide], the MIC is 64 µg/mL (≈ 199 µM) in data set [11]; 64 µg/mL (≈ 199 µM) in [12]; 64 µg/mL (≈ 199 µM) in [13]; more than 64 µg/mL in data set [14]; more than 64 µg/mL in data set [15]; more than 64 µg/mL in [16]. Further, the MIC in [17] is more than 64 µg/mL.

Regarding `CC(=NNC(=N)N)c1nnn(-c2ccc(C#CC3CCCC3)cc2)c1C` [Compound 25, 2-(1-(1-(4-(Cyclopentylethynyl)phenyl)-5-methyl-1H-1,2,3-triazol-4-yl)ethylidene)hydrazine-1-carboximidamide], the MIC in [11] is 64 µg/mL (≈ 183 µM); in data set [12], more than 64 µg/mL; in data set [13] it was 64 µg/mL (≈ 183 µM); in data set [14], more than 64 µg/mL; in data set [15], 64 µg/mL (≈ 183 µM); in data set [16], more than 64 µg/mL. Also, the MIC in data set [17] was more than 64 µg/mL.

As for `CC(=NNC(=N)N)c1nnn(-c2ccc(C#CC3CCCCC3)cc2)c1C` [Compound 26, 2-(1-(1-(4-(Cyclohexylethynyl)phenyl)-5-methyl-1H-1,2,3-triazol-4-yl)ethylidene)hydrazine-1-carboximidamide], the MIC is 16 µg/mL (≈ 44 µM) in data set [11]; 16 µg/mL (≈ 44 µM) in data set [12]; 64 µg/mL (≈ 176 µM) in [13]; 8 µg/mL (≈ 22 µM) in data set [14]; more than 64 µg/mL in [15]; 16 µg/mL (≈ 44 µM) in data set [16]. This compound showed an MIC in data set [17] of more than 64 µg/mL.

With `CC(=NNC(=N)N)c1nnn(-c2ccc(C#Cc3ccccc3)cc2)c1C` [Compound 30, 2-(1-(5-Methyl-1-(4-(phenylethynyl)phenyl)-1H-1,2,3-triazol-4-yl)ethylidene)hydrazine-1-carboximidamide], the minimal inhibitory concentration (MIC) in [11] was not above 4 µg/mL; in [12], more than 64 µg/mL; in data set [13], 16 µg/mL (≈ 44.8 µM); in data set [14] it was 16 µg/mL (≈ 44.8 µM); in data set [15], more than 64 µg/mL; in [16], 8 µg/mL (≈ 22.4 µM). The same compound had an MIC in [17] of more than 64 µg/mL. In addition, the “time to complete bacterial eradication” value in data set [18] was not above 24 h.

Regarding `CC(=NNC(=N)N)c1nnn(-c2ccc(C#Cc3ccc(C)cc3)cc2)c1C` [Compound 31, 2-(1-(5-Methyl-1-(4-(p-tolylethynyl)phenyl)-1H-1,2,3-triazol-4-yl)ethylidene)hydrazine-1-carboximidamide], the MIC in data set [11] is 8 µg/mL (≈ 21.5 µM); in [12] it was 2 µg/mL (≈ 5.38 µM); in data set [13], 4 µg/mL (≈ 10.8 µM); in [14], 8 µg/mL (≈ 21.5 µM); in [15], more than 64 µg/mL; in data set [16], 2 µg/mL (≈ 5.38 µM). The compound also came in with an MIC in [17] of more than 64 µg/mL.

Compound `OC(Cn1cncn1)(Cn1cncn1)c1ccc(F)cc1F` [Fluconazole, reference compound] came in with a minimum inhibitory concentration (MIC) in [16] of 0.5 µg/mL (≈ 1.63 µM).

With `CNC(C)C1CCC(N)C(OC2C(N)CC(N)C(OC3OCC(C)(O)C(NC)C3O)C2O)O1` (stereo not shown) [Gentamicin, reference compound], the MIC in data set [13] turned out to be 0.25 µg/mL (≈ 0.523 µM).

As for `CC(=O)NC[C@H]1CN(c2ccc(N3CCOCC3)c(F)c2)C(=O)O1` [Linezolid, reference compound], the MIC is 1 µg/mL (≈ 2.96 µM) in data set [11]; 1 µg/mL (≈ 2.96 µM) in data set [12]; 8 µg/mL (≈ 23.7 µM) in [13]; 1 µg/mL (≈ 2.96 µM) in [14]; 64 µg/mL (≈ 190 µM) in data set [15]; more than 64 µg/mL in data set [16].

In turn, `CN(C)[C@@H]1C(O)=C(C(N)=O)C(=O)[C@@]2(O)C(O)=C3C(=O)c4c(O)cccc4[C@@](C)(O)[C@H]3C[C@@H]12` [Tetracycline, reference compound] yielded a minimal inhibitory concentration (MIC) in [15] of 2 µg/mL (≈ 4.5 µM).

Turning to `CN[C@H](CC(C)C)C(=O)N[C@H]1C(=O)N[C@@H](CC(N)=O)C(=O)N[C@H]2C(=O)N[C@H]3C(=O)N[C@H](C(=O)N[C@H](C(=O)O)c4cc(O)cc(O)c4-c4cc3ccc4O)[C@H](O)c3ccc(c(Cl)c3)Oc3cc2cc(c3O[C@@H]2O[C@H](CO)[C@@H](O)[C@H](O)[C@H]2O[C@H]2C[C@](C)(N)[C@H](O)[C@H](C)O2)Oc2ccc(cc2Cl)[C@H]1O` [Vancomycin, reference compound], the MIC in [11] was 1 µg/mL (≈ 0.69 µM); in data set [12], 1 µg/mL (≈ 0.69 µM); in data set [13] it was 16 µg/mL (≈ 11 µM); in [14], 64 µg/mL (≈ 44.2 µM); in [15], more than 64 µg/mL; in data set [16] it was more than 64 µg/mL. The “time to complete bacterial eradication” value in data set [18] is given as “about 24 hours”.

In the data set with human erythrocytes, `O=C(O)c1cn(C2CC2)c2cc(N3CCNCC3)c(F)cc2c1=O` [ciprofloxacin] displayed a hemolytic activity of 15%.

The values above are taken from publication PMC11659749 (RSC Advances, 2024).
